{"source": "paper PMC8714961", "about": "“Involvement of P-gp on Reversing Multidrug Resistance Effects of 23-Hydroxybetulinic Acid on Chemotherapeutic Agents” (Frontiers in Pharmacology, 2021)", "key": {"MCF-7/ADR cells [1]": {"tested_on": "MCF-7/ADR cells", "experiment": "Trypan blue exclusion assay, MCF-7/ADR cells", "assay_type": "cell-based", "protocol": "(§1) MCF-7 (human breast carcinoma cells) and MCF-7/ADR (P-gp-overexpressing derivative cells) cell lines were obtained from Blood Diseases Hospital, Chinese Academy of Medica ([Shi et al., 2011]). The cells were routinely maintained in RPMI 1640 with 10% heat-inactivated fetal bovine serum (FBS), 1% non-essential amino acid solution, 0.1 mg/ml streptomycin, and 100 units/ml penicillin. Caco-2 cells were purchased from American Type Culture Collection (ATCC, Rockville, MD, United States). Vector-MDCK and MDR1-MDCK cells were purchased from PharmaResources Co., Ltd. (China). Both Caco-2 and MDCK cells were maintained at Dulbecco’s modified Eagle’s medium (DMEM) with 10% FBS, 1% non-essential amino acid solution, 0.1 mg/ml streptomycin, and 100 units/ml penicillin. MCF-7/ADR cells were treated with […] and were cultured in ADR-free medium for more than 14 days before the experiment. All cells were cultured at 37°C in a humidified atmosphere of 5% CO2.\n(§2) Trypan blue exclusion assay was used to measure the viability of cells to compounds. Briefly, MCF-7/sensitive (MCF-7/S) and MCF-7/ADR cells were diluted into the density of 0.5×10^4 cells/ml, then cells (1 ml) were seeded in culture plates. […]. The viable and dead cells (stained in blue) were counted by haemacytometer."}, "MCF-7/ADR cells [2]": {"tested_on": "MCF-7/ADR cells", "experiment": "Hoechst assay (apoptosis)", "assay_type": "cell-based, human", "conditions": "20 µM alone, vs control group", "protocol": "MCF-7/ADR cells were collected and cultured at the density of 2.0 × 10^5/well in 24-well plates. […] The cells were dyed with Hoechst 33,342 (Beyotime, Shanghai, China) in the dark at 37°C for 30 min after washing with phosphate buffered saline (PBS). The morphological changes of the nucleus were evaluated by a fluorescence microscope."}, "P-gp [3]": {"tested_on": "P-gp", "experiment": "MDCK-MDR1 transport of BA/23-HBA with or without verapamil", "conditions": "dog", "protocol": "(§3) Briefly, MDCK-MDR1 cells (1×10^5/Well) were seeded onto […] pore-size transwell inserts (Millipore, MA, United States) in 24-well plates. Cells were cultured for 5–7 days, when the transepithelial electrical resistance (TEER) values were 120–240 Ω cm^2.\n(§4) The cells were rinsed with warmed Hank’s balanced salt solution (HBSS), and the inserts were incubated for 20 min at 37°C. […] Aliquots (50 µl) were taken from the receiver compartment at intervals of 30, 60, 90, and 120 min and replaced with fresh buffer. In the study, verapamil (VER), known P-gp inhibitor, was selected as positive control.\n(§5) The apparent permeability values (Papp) were evaluated in all experiments according to the following equation: Papp=dQ/dt/AC0 (1) where A means the insert area and C0 represents the initial concentration. dQ/dt represents the slope of the cumulative content transported during the time course of the period studied.\n(§6) The efflux ratio (ER) was detected according to the ratio of Papp as the following equation: ER=Papp(B−A)/Papp(A−B) (2)"}, "[4]": {"tested_on": "MDCK-MDR1 cell monolayers", "experiment": "MDCK-MDR1 transport of BA/23-HBA with or without verapamil", "conditions": "+VER (verapamil 20 µM) vs without VER", "protocol": "as §3, §4, §5, §6"}, "MCF-7/S cells [5]": {"tested_on": "MCF-7/S cells", "experiment": "Trypan blue exclusion assay, MCF-7/S cells", "assay_type": "cell-based", "conditions": "0.2, 2 and 20 µM with ADR 0.08 µM or VCR 0.5 µM, 48 h", "protocol": "as §1, §2"}, "MCF-7/S cells [6]": {"tested_on": "MCF-7/S cells", "experiment": "ADR/VCR accumulation study in MCF-7/S cells", "conditions": "ADR/VCR 5 µM, test compound 0.2, 2, 20 µM, 1 h", "procedure": "MCF-7 cells (1×10^5/Well) were incubated in 24-well plates. […] After 1 h incubation, the compound solution was aspirated to stop further accumulation, and the monolayers were rinsed with cold Hank’s solution for three times. The drug content was detected by lysing the cells with ultrasound, and then the single well lysate was transferred to a plastic EP tube for further analysis. The protein concentration of the cells was measured using Coomassie brilliant blue."}, "P-gp [7]": {"molecular_target": "T1, P-gp (Homo sapiens, UniProt P08183)", "T1 sequence (P08183 whole entry)": "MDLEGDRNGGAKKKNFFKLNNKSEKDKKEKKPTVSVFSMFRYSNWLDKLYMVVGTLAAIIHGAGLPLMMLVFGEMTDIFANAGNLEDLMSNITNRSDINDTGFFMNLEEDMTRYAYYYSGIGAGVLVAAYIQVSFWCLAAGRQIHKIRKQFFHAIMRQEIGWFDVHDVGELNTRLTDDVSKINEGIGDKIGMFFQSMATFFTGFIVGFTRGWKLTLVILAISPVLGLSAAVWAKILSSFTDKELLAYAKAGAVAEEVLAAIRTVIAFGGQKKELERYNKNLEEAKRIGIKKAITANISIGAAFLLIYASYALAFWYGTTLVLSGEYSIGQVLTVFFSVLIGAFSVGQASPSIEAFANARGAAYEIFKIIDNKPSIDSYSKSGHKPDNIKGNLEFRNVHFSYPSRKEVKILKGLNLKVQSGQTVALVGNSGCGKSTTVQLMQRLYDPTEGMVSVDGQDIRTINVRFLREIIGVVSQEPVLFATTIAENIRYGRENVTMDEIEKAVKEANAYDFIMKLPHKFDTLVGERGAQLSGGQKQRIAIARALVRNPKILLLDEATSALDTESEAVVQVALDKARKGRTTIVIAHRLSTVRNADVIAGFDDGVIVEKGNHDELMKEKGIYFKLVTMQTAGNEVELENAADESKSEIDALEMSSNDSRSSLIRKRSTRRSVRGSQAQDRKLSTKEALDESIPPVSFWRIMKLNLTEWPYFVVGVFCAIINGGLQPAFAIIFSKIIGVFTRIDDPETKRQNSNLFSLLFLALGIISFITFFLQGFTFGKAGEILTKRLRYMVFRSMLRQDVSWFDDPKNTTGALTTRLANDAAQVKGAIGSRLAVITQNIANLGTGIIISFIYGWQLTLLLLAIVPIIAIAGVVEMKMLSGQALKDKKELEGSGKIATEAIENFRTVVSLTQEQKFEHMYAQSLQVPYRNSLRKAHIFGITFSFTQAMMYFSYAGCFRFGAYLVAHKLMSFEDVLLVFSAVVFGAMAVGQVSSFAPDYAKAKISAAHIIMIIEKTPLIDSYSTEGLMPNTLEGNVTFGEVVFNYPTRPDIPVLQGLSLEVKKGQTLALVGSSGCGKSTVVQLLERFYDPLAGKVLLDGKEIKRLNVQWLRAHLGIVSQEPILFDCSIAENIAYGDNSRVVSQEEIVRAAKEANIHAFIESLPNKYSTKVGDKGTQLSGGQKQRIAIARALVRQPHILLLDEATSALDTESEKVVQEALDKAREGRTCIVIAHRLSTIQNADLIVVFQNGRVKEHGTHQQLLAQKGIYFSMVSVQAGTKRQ", "experiment": "MDCK-MDR1 transport study, inhibition of VCR transport", "conditions": "dog, MDCK-MDR1", "protocol": "Briefly, MDCK-MDR1 cells (1×10^5/Well) were seeded onto […] pore-size transwell inserts (Millipore, MA, United States) in 24-well plates.\nas §4, §5"}, "P-gp [8]": {"molecular_target": "T1, P-gp", "experiment": "in vitro", "conditions": "dog, MDCK-MDR1", "procedure": "(§7) Briefly, MDCK-MDR1 cells (1×10^5/Well) were seeded onto 0.4 mm pore-size transwell inserts (Millipore, MA, United States) in 24-well plates."}, "P-gp [9]": {"molecular_target": "T1, P-gp", "conditions": "Control: digoxin 5 µM alone, MDCK-MDR1 monolayers", "procedure": "as §7"}, "[10]": {"conditions": "MDCK-MDR1, with verapamil 20 µM"}}, "data": [{"smiles": "C=C(C)[C@@H]1CC[C@]2(C(=O)O)CC[C@]3(C)[C@H](CC[C@@H]4[C@@]5(C)CC[C@H](O)C(C)(C)[C@@H]5CC[C@]43C)[C@@H]12", "note": "[BA, Betulinic acid]", "values": [{"measurement": "Cytotoxicity of combination exposure with ADR to MCF-7/ADR", "setting": "MCF-7/ADR cells [1]; 0–20 µM with ADR 3 µM", "value": "not observed"}, {"measurement": "Cell toxicity as a single agent", "setting": "MCF-7/ADR cells [1]; 0–20 µM, single agent", "value": "no cell toxicity was detected"}, {"measurement": "Number of apoptosis cells, single agent", "setting": "MCF-7/ADR cells [2]", "value": "not obviously different with the control group"}, {"measurement": "Papp A→B at 120 min, 0.2 µM", "setting": "P-gp [3]; MDCK-MDR1", "value": "61.2 ± 9.36", "unit": "×10⁻⁶ cm/s"}, {"measurement": "Papp A→B at 120 min, 2 µM", "setting": "P-gp [3]; MDCK-MDR1", "value": "5.43 ± 0.5", "unit": "×10⁻⁶ cm/s"}, {"measurement": "Papp A→B at 120 min, 20 µM", "setting": "P-gp [3]; MDCK-MDR1", "value": "0.72 ± 0.26", "unit": "×10⁻⁶ cm/s"}, {"measurement": "Papp B→A at 120 min, 0.2 µM", "setting": "P-gp [3]; MDCK-MDR1", "value": "55.1 ± 9.8", "unit": "×10⁻⁶ cm/s"}, {"measurement": "Papp B→A at 120 min, 2 µM", "setting": "P-gp [3]; MDCK-MDR1", "value": "6.51 ± 0.81", "unit": "×10⁻⁶ cm/s"}, {"measurement": "Papp B→A at 120 min, 20 µM", "setting": "P-gp [3]; MDCK-MDR1", "value": "0.59 ± 0.14", "unit": "×10⁻⁶ cm/s"}, {"measurement": "Papp A→B at 120 min, 0.2 µM", "setting": "P-gp [3]; [10]", "value": "105 ± 10.5", "unit": "×10⁻⁶ cm/s"}, {"measurement": "Papp A→B at 120 min, 2 µM", "setting": "P-gp [3]; [10]", "value": "7.65 ± 1.53", "unit": "×10⁻⁶ cm/s"}, {"measurement": "Papp A→B at 120 min, 20 µM", "setting": "P-gp [3]; [10]", "value": "0.26 ± 0.05", "unit": "×10⁻⁶ cm/s"}, {"measurement": "Papp B→A at 120 min, 0.2 µM", "setting": "P-gp [3]; [10]", "value": "62.1 ± 4.71", "unit": "×10⁻⁶ cm/s"}, {"measurement": "Papp B→A at 120 min, 2 µM", "setting": "P-gp [3]; [10]", "value": "6.9 ± 0.76", "unit": "×10⁻⁶ cm/s"}, {"measurement": "Papp B→A at 120 min, 20 µM", "setting": "P-gp [3]; [10]", "value": "0.17 ± 0.05", "unit": "×10⁻⁶ cm/s"}, {"measurement": "Folds (RE)", "setting": "[4]; compound 0.2 µM", "value": 0.66}, {"measurement": "Folds (RE)", "setting": "[4]; compound 2 µM", "value": 0.75}, {"measurement": "Folds (RE)", "setting": "[4]; compound 20 µM", "value": 0.78}, {"measurement": "Effect on cytotoxicity of MCF-7/S cells to ADR or VCR", "setting": "MCF-7/S cells [5]", "value": "neither 23-HBA nor BA showed significant effects on cytotoxicity"}, {"measurement": "Accumulation of ADR/VCR in sensitive MCF-7 cells", "setting": "MCF-7/S cells [6]", "value": "little impact was observed"}]}, {"smiles": "CC[C@]1(O)C[C@H]2CN(CCc3c([nH]c4ccccc34)[C@@](C(=O)OC)(c3cc4c(cc3OC)N(C=O)[C@H]3[C@@](O)(C(=O)OC)[C@H](OC(C)=O)[C@]5(CC)C=CCN6CC[C@]43[C@@H]65)C2)C1", "note": "[VCR, Vincristine, reference compound]", "values": [{"measurement": "Papp A→B at 120 min", "setting": "P-gp [7]", "value": "0.35 ± 0.17", "unit": "×10⁻⁶ cm/s"}, {"measurement": "Papp B→A at 120 min", "setting": "P-gp [7]", "value": "3.86 ± 0.71", "unit": "×10⁻⁶ cm/s"}, {"measurement": "efflux ratio at 120 min", "setting": "P-gp [7]", "value": 10.9}]}, {"smiles": "C[C@H]1O[C@@H](O[C@H]2[C@@H](O)C[C@H](O[C@H]3[C@@H](O)C[C@H](O[C@H]4CC[C@@]5(C)[C@H](CC[C@@H]6[C@@H]5C[C@@H](O)[C@]5(C)[C@@H](C7=CC(=O)OC7)CC[C@]65O)C4)O[C@@H]3C)O[C@@H]2C)C[C@H](O)[C@@H]1O", "note": "[digoxin, reference compound]", "values": [{"measurement": "Papp A→B at 120 min, 5 µM", "setting": "P-gp [8]", "value": "0.31 ± 0.05", "unit": "×10⁻⁶ cm/s"}, {"measurement": "RE (net efflux) of digoxin", "setting": "P-gp [9]", "value": 36.56}]}]}
